The text below walks through data of patent publication US20260284011A1, “COMPOUNDS FOR RESTORING SUSCEPTIBILITY TO BETA-LACTAM ANTIBIOTICS” (UNIVERSITY OF NOTRE DAME DU LAC, priority 2023, published 2026).

For one data set, the system named is NRS144 strain. Nature of the data set: MIC of the inducer CBAP. Format: cell-based, Staphylococcus aureus.
Data set [1] deals with modified bla operons (pCN52RI, pCN52RI-venus, pCN52RI-mCherry). Nature of the data set: Induction of fluorescent reporters of the bla operon by CBAP. Format: cell-based, S. aureus NRS144. From the text: FIG. 4. Comparison of the fluorescence intensity produced by S. aureus NRS144 strains harboring pCN52RI, pCN52RI-venus and pCN52RI-mCherry. Each fluorescent protein was induced by the β-lactam antibiotic CBAP. The ratios of fluorescence in the presence of CBAP to that in the absence of it were 3, 10 and 5 for GFP, Venus, and mCherry, respectively. Data were derived from four independent assays.
(§1) Live-Cell Fluorescent Assay in Discovery and Mechanism of Action. We conceived of fluorescent constructs in the bla operon, for the purpose of screening (FIG. 2a). We removed the gene for the β-lactamase (blaZ) and put in its place individually the genes for the Green Fluorescent Protein (GFP), Venus (a yellow-fluorescent protein) or mCherry (a red-fluorescent protein) in the template plasmid pCN52. The three plasmids were named pCN52RI, pCN52RI-Venus and pCN52RI-mCherry, respectively. The genes for the fluorescent proteins were transcribed under the promoter of the blaZ gene and were regulated by the proteins BlaR and BlaI, as is the case for the wild-type bla operon.
(§2) We transformed separately S. aureus NRS144—a laboratory strain that accepts a foreign gene and harbors neither the bla nor the mec operons—with each of these plasmids. […] When induced, the fluorescent protein is produced and is detected (akin to expression of the resistance genes blaZ or mecA in typical MSSA and MRSA). […] The transformed strains were grown in tryptic soy broth medium for overnight culture and strain maintenance and incubated in cation-adjusted Mueller-Hinton broth medium for inhibitor screening in a 96-well microplate format. The culture without CBAP addition was the negative control. In order to select a desirable reporter construct, we compared the intensity of the fluorescence produced from each construct at the wavelengths given in FIG. 2a using the Cytation-5 multi-mode microplate reader. Among the three constructs, pCN52RI-Venus produced the best fluorescence intensity and pCN52RI-mCherry was the second best (FIG. 4).
Construction of the fluorescent-reporter systems. […]

Another data set deals with BlaR (Staphylococcus aureus, UniProt P18357). The data set can be described thus: Live-cell fluorescent assay for BlaR inhibition (Venus reporter). Format: cell-based, S. aureus NRS144pCN52RI-Venus. Conditions: compound at 100 mg/L^−1; CBAP 10 mg·L^−1; fluorescence after 2 h.
Source text: as §1, §2
(§3) The collection of the 100 compounds from the in-silico search was screened against S. aureus NRS144pCN52RI-Venus. The screening strategy was as follows. Bacteria grown to OD600 of 0.25 were exposed concurrently to CBAP (10 mg·L^−1) and the test compound (100 mg·L^−1). Fluorescence was recorded after two hours of incubation. OD600 values were also recorded to identify compounds with inherent antibacterial activity. Compound 1 (Chart 1) emerged—82% diminished fluorescence as an indication of the extent of BlaR inhibition—as a suitable template for structure elaboration. This effort led to the synthesis of several dozen benzimidazole and imidazole compounds. The progression of the iterative design is depicted in Chart 1 for four compounds, culminating in 4. […] The X-ray structures for the complexes of compounds 2 (non-covalent) and 4 (covalent) with the BlaR sensor domain are shown respectively in FIG. 2b (2.0 Å resolution) and FIG. 2c (1.97 Å resolution). Compound 4 makes a covalent bond with the catalytic Ser389 and creates a network of hydrogen bonds with the BlaR active site (FIG. 2c).
(§4) Fluorescent assay for screening of BlaR potential inhibitors. A 3-mL portion of lysogeny broth (LB) medium was inoculated with NRS144pCN52RI Venus from frozen stocks and grown overnight at 37° C. The overnight culture was then diluted 1:150 fold with fresh LB containing […] of erythromycin and incubated at 37° C. to an OD600 of 0.3, at which point fluorescence was induced by the addition of CBAP to a final concentration of 10 μg·mL^−1. The culture was aliquoted (99 L) into 96-well plate and 1 L of inhibitor solution (1 mg·mL^−1 in DMSO) was added to each well. Negative control (DMSO without CBAP) and positive control (CBAP without inhibitor) were included. The plate was incubated at 30° C. for 2 h with intermittent shaking. Fluorescence and OD600 measurements were taken by a Cytation-5 multimode microplate reader. Percent inhibition of BlaR and bacterial growth were calculated using absorbance unit (AU) and OD600 values of each sample entered into this formula: […]

Data set [2] has as its system S. aureus NRS144pCN52RI-Venus. Nature of the data set: Bacterial growth inhibition (OD600) in the fluorescent screening assay. In kind it is cell-based, Staphylococcus aureus. Conditions: compound at 100 mg/L^−1; OD600 after 2 h. The method, then:
as §3, §4

For another data set, the system named is S. aureus. The data set can be described thus: Potentiation of β-lactams by cyclic boronate β-lactamase inhibitors. In kind it is cell-based, Staphylococcus aureus.

Chain of BlaR (P18357 whole entry): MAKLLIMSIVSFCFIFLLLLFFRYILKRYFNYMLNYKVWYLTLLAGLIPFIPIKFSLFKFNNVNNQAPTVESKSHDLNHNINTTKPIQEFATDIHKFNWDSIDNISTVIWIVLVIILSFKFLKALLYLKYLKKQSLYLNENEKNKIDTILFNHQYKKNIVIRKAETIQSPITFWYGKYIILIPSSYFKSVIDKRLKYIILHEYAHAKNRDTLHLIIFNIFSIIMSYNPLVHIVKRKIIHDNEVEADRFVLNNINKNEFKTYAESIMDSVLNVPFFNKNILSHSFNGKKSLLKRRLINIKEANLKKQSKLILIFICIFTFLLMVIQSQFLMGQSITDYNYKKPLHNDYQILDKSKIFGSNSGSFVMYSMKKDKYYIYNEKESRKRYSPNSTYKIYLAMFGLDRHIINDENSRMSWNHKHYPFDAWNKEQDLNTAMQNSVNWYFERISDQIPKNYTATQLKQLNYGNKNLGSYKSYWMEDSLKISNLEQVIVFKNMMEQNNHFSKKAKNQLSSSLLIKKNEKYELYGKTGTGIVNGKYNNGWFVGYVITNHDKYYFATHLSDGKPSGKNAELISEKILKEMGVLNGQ

With “2-(2-carboxyphenyl)-benzoyl-6-aminopenicillanic acid [CBAP]”, the “minimal-inhibitory concentration (MIC)” value in the data set on NRS144 strain was 64 µg/mL. In addition, the figures for the “ratio of fluorescence in the presence of CBAP to that in the absence” value in data set [1] (GFP (pCN52RI)), in data set [1] (Venus (pCN52RI-venus)) and in data set [1] (mCherry (pCN52RI-mCherry)) were 3, 10 and 5, respectively.
`N#CCCSc1nc2ccc(C#N)cc2n1Cc1ccc(C(F)(F)F)cc1C(F)(F)F` [Compound 36]: the “% Inhibition of BlaR” value on BlaR came out at 90%. Besides, in data set [2], the “% Inhibition of bacterial growth” value is 40%.
For `COC(=O)c1ccc2nc(SCCC#N)n(Cc3ccc(C(F)(F)F)cc3C(F)(F)F)c2c1` [Compound 38], the “% Inhibition of BlaR” value at BlaR worked out at 89%. In data set [2], the “% Inhibition of bacterial growth” value was determined as 16%.
For the molecule `COC(=O)c1ccc2nc(SCCCC#N)n(Cc3ccc(C(F)(F)F)cc3C(F)(F)F)c2c1` [Compound 39], at BlaR, the “% Inhibition of BlaR” value is listed as 92%. Further, the “% Inhibition of bacterial growth” value in data set [2] worked out at 25%.
For `OCc1nc2ccccc2n1Cc1ccc(C(F)(F)F)cc1C(F)(F)F` [Compound 40] the same measures were 67% and 25%.
For `FC(F)(F)c1ccc(Cn2c(CBr)nc3ccccc32)c(C(F)(F)F)c1` [Compound 41] the same measures were 78% and 36%.
Take `OB(O)Cc1nc2ccccc2n1Cc1ccc(C(F)(F)F)cc1C(F)(F)F` [Compound 42]: the “% Inhibition of BlaR” value on BlaR is given as 99%. In addition, the “% Inhibition of bacterial growth” value in data set [2] amounted to 82%.
As to `OB(O)CCc1nc2ccccc2n1Cc1ccc(C(F)(F)F)cc1C(F)(F)F` [Compound 46], at BlaR, the “% Inhibition of BlaR” value worked out at 0%. For the same molecule, in data set [2], the “% Inhibition of bacterial growth” value amounted to 49%.
As for `NCc1cn(Cc2ccc(C(F)(F)F)cc2C(F)(F)F)c(=S)[nH]1` [Compound 48], at BlaR, the “% Inhibition of BlaR” value came to 50%. For the same molecule, the “% Inhibition of bacterial growth” value in data set [2] is 90%.
In the case of `NSc1nc([C@H](O)[C@H](O)CO)cn1Cc1ccccc1` [Compound 52], the “% Inhibition of BlaR” value on BlaR was 33%. For the same molecule, the “% Inhibition of bacterial growth” value in data set [2] was found to be 0%.
Turning to `O=S(=O)(O)c1nccn1Cc1ccc(C(F)(F)F)cc1C(F)(F)F` [Compound 54], the “% Inhibition of BlaR” value on BlaR stood at 18%. Besides, the “% Inhibition of bacterial growth” value in data set [2] was found to be 0%.
As for `N#Cc1cn(Cc2ccc(C(F)(F)F)cc2C(F)(F)F)cn1` [Compound 55], at BlaR, the “% Inhibition of BlaR” value is listed as 0%. The “% Inhibition of bacterial growth” value in data set [2] stood at 0%.
As to `O=S(=O)(Cl)c1nc(CO)cn1Cc1ccc(C(F)(F)F)cc1C(F)(F)F` [Compound 57], the “% Inhibition of BlaR” value on BlaR is on record as 83%. In addition, in data set [2], the “% Inhibition of bacterial growth” value is 0%.
As for `OCc1cn(Cc2ccc(C(F)(F)F)cc2C(F)(F)F)c(Cl)n1` [Compound 58], the “% Inhibition of BlaR” value on BlaR was 43%. In addition, in data set [2], the “% Inhibition of bacterial growth” value is 0%.
For `O=S(=O)(O)c1nc(CO)cn1Cc1ccc(C(F)(F)F)cc1C(F)(F)F` [Compound 60], the “% Inhibition of BlaR” value at BlaR is 0%. Besides, in data set [2], the “% Inhibition of bacterial growth” value is 0%.
As to `NCc1cn(Cc2ccc(C(F)(F)F)cc2C(F)(F)F)c(S(=O)(=O)O)n1` [Compound 63], at BlaR, the “% Inhibition of BlaR” value was found to be 50%. In addition, the “% Inhibition of bacterial growth” value in data set [2] is on record as 18%.
As for `CC(C)(C)OC(=O)NCc1cn(Cc2ccc(C(F)(F)F)cc2C(F)(F)F)c(S(=O)(=O)O)n1` [Compound 64], the “% Inhibition of BlaR” value at BlaR came to 75%. For the same molecule, the “% Inhibition of bacterial growth” value in data set [2] turned out to be 40%.
In the case of `COc1ccc(CSc2nc(CNC(=O)OCc3ccccc3)cn2Cc2ccc(C(F)(F)F)cc2C(F)(F)F)cc1` [Compound 65], the “% Inhibition of BlaR” value on BlaR came to 19%. Further, the “% Inhibition of bacterial growth” value in data set [2] is recorded as 0%.
On to `O=C(O)c1cn(Cc2ccc(C(F)(F)F)cc2C(F)(F)F)c(S(=O)(=O)O)n1` [Compound 72], for which, on BlaR, the “% Inhibition of BlaR” value amounted to 11%. Besides, the “% Inhibition of bacterial growth” value in data set [2] was found to be 0%.
Turning to `OCC1NC(=S)N(Cc2ccc(C(F)(F)F)cc2C(F)(F)F)N1` (stereo not drawn) [Compound 77], the “% Inhibition of BlaR” value on BlaR is on record as 71%. In addition, the “% Inhibition of bacterial growth” value in data set [2] is reported as 30%.
As to `OCc1nn(Cc2ccc(C(F)(F)F)cc2C(F)(F)F)c(=S)[nH]1` [Compound 78], on BlaR, the “% Inhibition of BlaR” value was 70%. For the same molecule, the “% Inhibition of bacterial growth” value in data set [2] worked out at 56%.
Regarding `OCC1NC(=S)N(c2ccc(C(F)(F)F)cc2)N1` (stereo not drawn) [Compound 79], the “% Inhibition of BlaR” value on BlaR amounted to 75%. Moreover, the “% Inhibition of bacterial growth” value in data set [2] came out at 65%.
For the molecule `NCCN[C@H]1CC[C@H](CC(=O)N[C@H]2Cc3cccc(C(=O)O)c3OB2O)CC1` [taniborbactam], the “potentiation of the anti-S. aureus activities of MEM, OXA, FOX and CPT” value in the data set with S. aureus was “no activity”.
In the case of `O=C(O)C[C@@H]1CC[C@H](NC(=O)Cc2cccs2)B(O)O1` [vaborbactam], the “potentiation of the anti-S. aureus activities of MEM, OXA, FOX and CPT” value in the data set on S. aureus was “no activity”.
